In the assay the target is T1, C3b (Homo sapiens, UniProt P01024).
T1 construct: Biotinylated C3b was captured site-specifically on a streptavidin chip
In words: SPR kinetic analysis of binding to immobilized C3b (Biacore, single cycle kinetics). Conditions: for Kd: read-out: KD: binding constant from SPR; for koff: read-out: kd: dissociation rate. How it is done: SPR analysis. The interaction of the compstatin analogs with C3b was characterized using a Biacore 3000 instrument (GE Healthcare, Corp., Piscataway, N.J.). The running buffer was PBS, pH 7.4 (10 mM sodium phosphate, 150 mM NaCl) with 0.005% Tween-20. Biotinylated C3b was captured site-specifically on a streptavidin chip at about 3000 and 5000 RU density; two untreated flow cells were used as reference surface. For kinetic analysis, sets of five increasing concentrations of a particular compound were injected over the chip surface one after the other in a single cycle. […] Processed biosensor data were globally fitted to a 1:1 Langmuir binding model (kindly provided by GE Helthcare), and the equilibrium dissociation constant (KD) was calculated from the equation KD=kd/ka. Each assay was performed at least twice.

Where two headings read alike, the source gives them in different places. Bridge positions count the residues as written; N and C are the ends. Square brackets hold non-standard residues; d marks the D form. Peptide text beside a SMILES is read from it. Trp(1-Me) = Cn1cc(C[C@H](N)C(=O)O)c2ccccc21; NMeI = CC[C@H](C)[C@H](NC)C(=O)O; Orn = NCCC[C@H](N)C(=O)O; Sar = CNCC(=O)O

T1 sequence (P01024 23-667 limits assumed): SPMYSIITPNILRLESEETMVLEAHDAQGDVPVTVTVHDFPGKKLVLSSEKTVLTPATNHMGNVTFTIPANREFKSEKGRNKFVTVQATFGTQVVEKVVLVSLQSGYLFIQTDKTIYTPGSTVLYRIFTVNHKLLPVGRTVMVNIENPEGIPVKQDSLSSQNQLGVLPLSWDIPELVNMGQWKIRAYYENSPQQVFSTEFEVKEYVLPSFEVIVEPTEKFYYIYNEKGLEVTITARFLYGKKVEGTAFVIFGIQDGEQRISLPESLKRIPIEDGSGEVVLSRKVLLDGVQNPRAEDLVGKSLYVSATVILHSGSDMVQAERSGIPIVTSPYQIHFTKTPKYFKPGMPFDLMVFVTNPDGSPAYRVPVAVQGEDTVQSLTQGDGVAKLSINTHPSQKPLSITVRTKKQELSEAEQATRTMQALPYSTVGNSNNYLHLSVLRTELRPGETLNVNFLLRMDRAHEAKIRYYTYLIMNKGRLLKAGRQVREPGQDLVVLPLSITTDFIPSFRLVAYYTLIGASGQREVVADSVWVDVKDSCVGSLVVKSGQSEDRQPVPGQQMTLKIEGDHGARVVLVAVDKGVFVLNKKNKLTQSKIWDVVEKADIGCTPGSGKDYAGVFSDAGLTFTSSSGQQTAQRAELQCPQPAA
T1 sequence (P01024 749-1663 partner limits assumed): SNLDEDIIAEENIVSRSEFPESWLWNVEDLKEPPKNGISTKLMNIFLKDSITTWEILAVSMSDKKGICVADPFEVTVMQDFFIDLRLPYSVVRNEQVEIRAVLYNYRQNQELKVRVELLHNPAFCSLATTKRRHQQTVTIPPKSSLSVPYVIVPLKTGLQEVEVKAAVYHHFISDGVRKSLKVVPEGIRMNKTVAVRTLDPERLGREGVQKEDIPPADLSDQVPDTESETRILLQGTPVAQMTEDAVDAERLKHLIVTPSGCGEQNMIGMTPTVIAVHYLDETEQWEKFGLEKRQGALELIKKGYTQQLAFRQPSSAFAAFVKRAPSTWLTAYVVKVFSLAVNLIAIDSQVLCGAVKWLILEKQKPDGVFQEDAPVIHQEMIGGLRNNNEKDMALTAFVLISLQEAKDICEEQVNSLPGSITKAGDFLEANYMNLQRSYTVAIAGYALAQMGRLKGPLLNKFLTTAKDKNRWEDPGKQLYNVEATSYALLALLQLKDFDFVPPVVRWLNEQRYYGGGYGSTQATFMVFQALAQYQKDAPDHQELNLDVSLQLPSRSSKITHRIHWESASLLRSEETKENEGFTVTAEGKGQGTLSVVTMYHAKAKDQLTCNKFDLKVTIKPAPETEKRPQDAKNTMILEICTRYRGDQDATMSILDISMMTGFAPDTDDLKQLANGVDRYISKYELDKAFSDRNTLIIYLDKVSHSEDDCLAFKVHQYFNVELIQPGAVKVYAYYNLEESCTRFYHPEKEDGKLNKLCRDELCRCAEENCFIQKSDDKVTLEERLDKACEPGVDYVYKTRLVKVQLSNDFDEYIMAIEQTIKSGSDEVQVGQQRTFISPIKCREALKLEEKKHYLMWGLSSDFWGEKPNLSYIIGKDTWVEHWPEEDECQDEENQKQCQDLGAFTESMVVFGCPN

Usually Kd stands for the concentration at which binding is half-saturated. Consider `CC[C@H](C)[C@H](NC(=O)[C@H](N)Cc1ccc(O)cc1)C(=O)N[C@H]1CSSC[C@@H](C(=O)N(C)[C@H](C(N)=O)[C@@H](C)CC)NC(=O)[C@H](CCCNC(=N)N)NC(=O)[C@H](Cc2c[nH]cn2)NC(=O)[C@H](C)NC(=O)CN(C)C(=O)[C@H](Cc2c[nH]c3ccccc23)NC(=O)[C@H](CC(N)=O)NC(=O)[C@H](CCC(N)=O)NC(=O)[C@H](Cc2cn(C)c3ccccc23)NC(=O)[C@H](C(C)C)NC1=O` [Cp40 (6Asn)] (H-[dY]ICV[Trp(1-Me)]QNW[Sar]AHRC[NMeI]-NH2; disulfide 3-13), for which, for the setting “Table 2, Cp40-based analogs”, the “ka: association rate” value is listed as 0.9 ± 0.1 10^6/Ms, the Kd came out at 3 ± 0.4 nM and the koff amounted to 0.0028 ± 0.0001 s⁻¹.
The corresponding values for `CC[C@H](C)[C@H](NC(=O)[C@H](N)Cc1ccc(O)cc1)C(=O)N[C@H]1CSSC[C@@H](C(=O)N(C)[C@H](C(N)=O)[C@@H](C)CC)NC(=O)[C@H](CCCN)NC(=O)[C@H](Cc2c[nH]cn2)NC(=O)[C@H](C)NC(=O)CN(C)C(=O)[C@H](Cc2c[nH]c3ccccc23)NC(=O)[C@H](CC(N)=O)NC(=O)[C@H](CCC(N)=O)NC(=O)[C@H](Cc2cn(C)c3ccccc23)NC(=O)[C@H](C(C)C)NC1=O` [Cp40 (11Orn 6Asn)] (H-[dY]ICV[Trp(1-Me)]QNW[Sar]AH[Orn]C[NMeI]-NH2; disulfide 3-13) are 2.0 ± 0.4 10^6/Ms, 1.5 ± 0.4 nM and 0.0028 ± 0.0006 s⁻¹.
For `CC[C@H](C)[C@H](NC(=O)[C@H](N)Cc1ccc(O)cc1)C(=O)N[C@H]1CSSC[C@@H](C(=O)N(C)[C@H](C(N)=O)[C@@H](C)CC)NC(=O)[C@H](CCCN)NC(=O)[C@H](Cc2c[nH]cn2)NC(=O)[C@H](C)NC(=O)CN(C)C(=O)[C@H](Cc2c[nH]c3ccccc23)NC(=O)[C@H](CC(=O)O)NC(=O)[C@H](CCC(N)=O)NC(=O)[C@H](Cc2cn(C)c3ccccc23)NC(=O)[C@H](C(C)C)NC1=O` [Cp40 (11Orn)] (H-[dY]ICV[Trp(1-Me)]QDW[Sar]AH[Orn]C[NMeI]-NH2; disulfide 3-13) the same measures were 2.5 ± 0.1 10^6/Ms, 0.8 ± 0.1 nM and 0.002 ± 0.0001 s⁻¹.
With `CC[C@H](C)[C@H](NC(=O)[C@@H](N)Cc1ccccc1)C(=O)N[C@H]1CSSC[C@@H](C(=O)N(C)[C@H](C(N)=O)[C@@H](C)CC)NC(=O)[C@H](CCCNC(=N)N)NC(=O)[C@H](Cc2c[nH]cn2)NC(=O)[C@H](C)NC(=O)CN(C)C(=O)[C@H](Cc2c[nH]c3ccccc23)NC(=O)[C@H](CC(=O)O)NC(=O)[C@H](CCC(N)=O)NC(=O)[C@H](Cc2cn(C)c3ccccc23)NC(=O)[C@H](C(C)C)NC1=O` [compound 5] (H-FICV[Trp(1-Me)]QDW[Sar]AHRC[NMeI]-NH2; disulfide 3-13), where the note is “Table 1, N-terminal analogs”, the “ka: association rate” value is recorded as 2.1 ± 0.4 10^6/Ms, the Kd came out at 1.6 ± 0.2 nM and the koff is 0.0033 ± 0.0003 s⁻¹.
For `CC[C@H](C)[C@H](NC(=O)[C@@H](N)CCCNC(=N)N)C(=O)N[C@H]1CSSC[C@@H](C(=O)N(C)[C@H](C(N)=O)[C@@H](C)CC)NC(=O)[C@H](CCCNC(=N)N)NC(=O)[C@H](Cc2c[nH]cn2)NC(=O)[C@H](C)NC(=O)CN(C)C(=O)[C@H](Cc2c[nH]c3ccccc23)NC(=O)[C@H](CC(=O)O)NC(=O)[C@H](CCC(N)=O)NC(=O)[C@H](Cc2cn(C)c3ccccc23)NC(=O)[C@H](C(C)C)NC1=O` [compound 6] (H-RICV[Trp(1-Me)]QDW[Sar]AHRC[NMeI]-NH2; disulfide 3-13) the same measures were 1.7 ± 0.2 10^6/Ms, 1.7 ± 0.2 nM and 0.0029 ± 0.0002 s⁻¹.
As for `CC[C@H](C)[C@H](NC(=O)[C@@H](N)Cc1c[nH]c2ccccc12)C(=O)N[C@H]1CSSC[C@@H](C(=O)N(C)[C@H](C(N)=O)[C@@H](C)CC)NC(=O)[C@H](CCCNC(=N)N)NC(=O)[C@H](Cc2c[nH]cn2)NC(=O)[C@H](C)NC(=O)CN(C)C(=O)[C@H](Cc2c[nH]c3ccccc23)NC(=O)[C@H](CC(=O)O)NC(=O)[C@H](CCC(N)=O)NC(=O)[C@H](Cc2cn(C)c3ccccc23)NC(=O)[C@H](C(C)C)NC1=O` [compound 7] (H-WICV[Trp(1-Me)]QDW[Sar]AHRC[NMeI]-NH2; disulfide 3-13), for the setting “Table 1, N-terminal analogs”, the “ka: association rate” value is reported as 1.6 ± 0.1 10^6/Ms and the Kd came out at 2.2 ± 0.2 nM.
For `CC[C@H](C)[C@H](NC(=O)[C@@H](N)[C@@H](C)O)C(=O)N[C@H]1CSSC[C@@H](C(=O)N(C)[C@H](C(N)=O)[C@@H](C)CC)NC(=O)[C@H](CCCNC(=N)N)NC(=O)[C@H](Cc2c[nH]cn2)NC(=O)[C@H](C)NC(=O)CN(C)C(=O)[C@H](Cc2c[nH]c3ccccc23)NC(=O)[C@H](CC(=O)O)NC(=O)[C@H](CCC(N)=O)NC(=O)[C@H](Cc2cn(C)c3ccccc23)NC(=O)[C@H](C(C)C)NC1=O` [compound 8] (H-TICV[Trp(1-Me)]QDW[Sar]AHRC[NMeI]-NH2; disulfide 3-13), under “Table 1, N-terminal analogs”, the “ka: association rate” value is recorded as 1.2 ± 0.1 10^6/Ms, the Kd was determined as 2.6 ± 0.3 nM and the koff was 0.0031 ± 0.0002 s⁻¹.
`CC[C@H](C)[C@H](NC(=O)[C@@H](N)Cc1ccc(OC)cc1)C(=O)N[C@H]1CSSC[C@@H](C(=O)N(C)[C@H](C(N)=O)[C@@H](C)CC)NC(=O)[C@H](CCCNC(=N)N)NC(=O)[C@H](Cc2c[nH]cn2)NC(=O)[C@H](C)NC(=O)CN(C)C(=O)[C@H](Cc2c[nH]c3ccccc23)NC(=O)[C@H](CC(=O)O)NC(=O)[C@H](CCC(N)=O)NC(=O)[C@H](Cc2cn(C)c3ccccc23)NC(=O)[C@H](C(C)C)NC1=O` [compound 9]: the “ka: association rate” value (Table 1, N-terminal analogs) is on record as 2.3 ± 0.4 10^6/Ms.
For `CC[C@H](C)[C@H](NC(=O)[C@H](Cc1ccccc1)NC)C(=O)N[C@H]1CSSC[C@@H](C(=O)N(C)[C@H](C(N)=O)[C@@H](C)CC)NC(=O)[C@H](CCCNC(=N)N)NC(=O)[C@H](Cc2c[nH]cn2)NC(=O)[C@H](C)NC(=O)CN(C)C(=O)[C@H](Cc2c[nH]c3ccccc23)NC(=O)[C@H](CC(=O)O)NC(=O)[C@H](CCC(N)=O)NC(=O)[C@H](Cc2cn(C)c3ccccc23)NC(=O)[C@H](C(C)C)NC1=O` [compound 10], where the note is “Table 1, N-terminal analogs”, the “ka: association rate” value was 1.6 ± 0.2 10^6/Ms, the Kd stood at 1.8 ± 0.3 nM and the koff came out at 0.0029 ± 0.0003 s⁻¹.
As for `CC[C@H](C)[C@H](NC(=O)[C@@H](NC)C(C)C)C(=O)N[C@H]1CSSC[C@@H](C(=O)N(C)[C@H](C(N)=O)[C@@H](C)CC)NC(=O)[C@H](CCCNC(=N)N)NC(=O)[C@H](Cc2c[nH]cn2)NC(=O)[C@H](C)NC(=O)CN(C)C(=O)[C@H](Cc2c[nH]c3ccccc23)NC(=O)[C@H](CC(=O)O)NC(=O)[C@H](CCC(N)=O)NC(=O)[C@H](Cc2cn(C)c3ccccc23)NC(=O)[C@H](C(C)C)NC1=O` [compound 11], under “Table 1, N-terminal analogs”, the “ka: association rate” value is 1.8 ± 0.3 10^6/Ms, the Kd was 1.9 ± 0.1 nM and the koff came to 0.0035 ± 0.0006 s⁻¹.
For the compound `CC[C@H](C)[C@H](NC)C(=O)N[C@H](C(=O)N[C@H]1CSSC[C@@H](C(=O)N(C)[C@H](C(N)=O)[C@@H](C)CC)NC(=O)[C@H](CCCNC(=N)N)NC(=O)[C@H](Cc2c[nH]cn2)NC(=O)[C@H](C)NC(=O)CN(C)C(=O)[C@H](Cc2c[nH]c3ccccc23)NC(=O)[C@H](CC(=O)O)NC(=O)[C@H](CCC(N)=O)NC(=O)[C@H](Cc2cn(C)c3ccccc23)NC(=O)[C@H](C(C)C)NC1=O)[C@@H](C)CC` [compound 12], for the setting “Table 1, N-terminal analogs”, the “ka: association rate” value is 1.6 ± 0.2 10^6/Ms, the Kd turned out to be 2.4 ± 0.5 nM and the koff stood at 0.0037 ± 0.0003 s⁻¹.

The values are drawn from patent publication US20210032291A1, “Compstatin Analogs With Improved Pharmacokinetic Properties” (The Trustees of the University of Pennsylvania, priority 2011, published 2021).
